Assay results: US20250332173A1, “COMPOUNDS AND METHODS FOR MODULATING NUCLEIC ACID SPLICING” (REMIX THERAPEUTICS INC., priority 2021, published 2025)
Where two headings read alike, the source gives them in different places.

Tests used:
[1] = tested on: MYB; experiment: HiBiT protein abundance assay, MYB HiBiT K562 cell line; type: cell-based, human; settings: HiBiT K562 cell line, 24 hours, top dose 10 μM; read-out: Effect on protein abundance, MYB (IC50 category)
Experimental: (§1) Compounds described herein were used to screen for effects on quantitative protein abundance using a HiBit assay system (Promega). Quantitative protein abundance was determined by measuring the protein levels of HiBit-tagged protein targets expressed in cell culture via luminescence using the Nano-Glo HiBiT Lytic Detection System, which uses a split complementation assay format to reconstitute NanoBiT enzyme to generate a luminescent signal. A protein abundance assay was developed such that endogenous protein targets could be modified with the HiBiT peptide tag and their abundance could be assessed after compound treatment. Briefly, K562 cell lines containing a HiBiT-modification were treated with various compounds described herein (e.g., compounds of Formulas (I), (II), (III), (IV), (V), (VI), (VII), (VIII), or (IX)). After treatment for 24 hours, the protein abundance of a specific target was determined by measuring luminescence.
(§2) • Promega Nano-Glo HiBiT Lytic Detection System (cat #N3030) • Corning 384-well TC-treated microplates (cat #3570) • Synthego Engineered Cells Knock-In Clones
(§3) Cells were maintained in IMDM with 10% FBS. Before the assay, cells were diluted with […] growth media (IMDM+[…] media) and were seeded in a 384-well plate at a density of 10,000 cells/well (for each cell line listed in Table 5). Each compound was prepared as a 10-point 3-fold serial dilution in DMSO with the top dose at a final concentration of 10 μM in the well. Unmodified K562 cells were added at the previously specified density with DMSO to serve as an assay baseline and positive control (PC) and DMSO only with the respective modified cell lines was added to the negative control (NC) columns. Final DMSO concentration was kept at or below 0.25%. Treated cell plates were placed in an incubator at 37° C. with […] for 24 hours. After 24 hours, 25 μL of Complete HiBit Lytic reagent was added to each well at room temperature (e.g. one plate requiring 10 mL Lytic Buffer, 100 μL LgBiT Protein, 200 μL Lytic Substrate), shaken for 5 minutes at 600 RPM, then left to sit for 10 minutes for signal to stabilize before reading on a Spark Cyto plate reader (Tecan) with a 500 ms measurement time.
(§4) To determine compound effects on protein abundance of each target in Table 5, the percent response for each respective cell line was calculated at each compound concentration as follows:
(§5) For the normalized response at each concentration, a four-parameter logistical regression was fit to the data and the response was interpolated at the […] to determine a concentration for protein abundance at […] the untreated control.

[2] = tested on: K562 (human chronic myelogenous leukemia) cells; experiment: Cell Titer Glo 2.0 cell viability assay; type: cell-based; settings: Homo sapiens, K562, 72 h, K562 cells, 72 hours, Cell Titer Glo 2.0; read-out: K562 GI50
[3] = tested on: HTT; experiment: HiBiT protein abundance assay, HTT HiBiT K562 cell line; type: cell-based, human; settings: HiBiT K562 cell line, 24 hours, top dose 10 μM; read-out: Effect on protein abundance, HTT (IC50 category)
Experimental: as §1, §2, §3, §4, §5

[4] = tested on: Target C; experiment: HiBiT protein abundance assay, Target C (Promega Nano-Glo HiBiT Lytic Detection System, knock-in K562 cell line); type: cell-based, human; settings: Homo sapiens, K562, 24 h, HiBiT K562 cell line, 24 hours, top dose 10 μM; read-out: Effect on protein abundance, Target C (IC50 category)
Experimental: as §2, §3, §4, §5

[5] = tested on: HTT mRNA; experiment: RT-qPCR splicing assay, HTT canonical junction (CJ) and alternative junction (AJ) mRNA; type: cell-based, human; settings: Homo sapiens
Procedure, shortened: (§6)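 Following a 24-hour incubation of A673 or K562 cells with serially diluted compound (3-fold steps, highest final 10 uM), the lysates undergo cDNA synthesis plus qPCR. Canonical and alternative junctions are each quantified against PPIA, GAPDH or GUSB.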

[6] = tested on: MYB mRNA; experiment: RT-qPCR splicing assay, MYB canonical junction (CJ) and alternative junction (AJ) mRNA; type: cell-based, human; settings: Homo sapiens
Procedure, shortened: as §6

[7] = tested on: SMN2 mRNA; experiment: RT-qPCR splicing assay, SMN2 canonical junction (CJ) mRNA; type: cell-based, human; settings: Homo sapiens; Table 5 panel; canonical junction qPCR; compound concentration having 50% response in CJ decrease; read-out: SMN2 IC50 (decrease in CJ mRNA levels)
Procedure, shortened: (§7)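 Canonical exon-exon junction transcript levels measured by one-step RT-qPCR of cell lysates, normalized to a housekeeping gene (GAPDH, GUSB or PPIA). Cells used were A673 or K562, exposed for 24 h to compound in 11-point, 3-fold series from 10 uM, with final DMSO at or below 0.25%.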

[8] = tested on: Target C; experiment: RT-qPCR splicing assay panel, Target C canonical junction (CJ) mRNA; type: cell-based, human; settings: Homo sapiens; Table 5 panel; canonical junction qPCR; compound concentration having 50% response in CJ decrease; read-out: Target C IC50 (decrease in CJ mRNA levels)
Procedure, shortened: as §7

Row | Compound | IC50 [1] [nM] | GI50 [2] [nM] | IC50 [3] [nM] | IC50 [4] [nM] | IC50 ([5]; decrease in HTT canonical junction (CJ) mRNA, RT-qPCR, read-out: HTT CJ IC50) [nM] | IC50 ([5]; Table 5 panel, canonical junction qPCR, compound concentration having 50% response in CJ decrease, read-out: HTT IC50 (decrease in CJ mRNA levels)) [nM] | IC50 ([6]; Table 5 panel, canonical junction qPCR, compound concentration having 50% response in CJ decrease, read-out: MYB IC50 (decrease in CJ mRNA levels)) [nM] | IC50 ([6]; decrease in MYB canonical junction (CJ) mRNA, RT-qPCR, read-out: MYB CJ IC50) [nM] | IC50 [7] [nM] | IC50 [8] [nM] | AC50 ([5]; increase in HTT alternative junction (AJ) mRNA, RT-qPCR, read-out: HTT AJ AC50) [nM] | AC50 ([6]; increase in MYB alternative junction (AJ) mRNA, RT-qPCR, read-out: MYB AJ AC50) [nM]
1 | COc1cc2c(=O)n(C3CCNCC3)cnc2cc1-c1cc(C)c2nc(C)cn2n1 [Compound 504, 7-{2,8-dimethylimidazo[1,2-b]pyridazin-6-yl}-6-methoxy-3-(piperidin-4-yl)quinazolin-4-one] | > 10000 | > 10000 | > 10000 | > 10000 | – | – | – | – | – | – | – | –
2 | Cc1cn2cc(-c3cc(F)c4c(=O)n(C5CCNC5)cnc4c3)cc(F)c2n1 (stereo not shown) [Compound 344] | – | 1000 to 10000 | – | > 10000 | 1000 to 10000 | 1000 to 10000 | 100 to 1000 | 100 to 1000 | < 100 | 1000 to 10000 | 1000 to 10000 | 100 to 1000
3 | COc1c(-c2ccc3c(=O)n(C4CCNCC4)cnc3n2)cc2cn(C)nc2c1C [Compound 506, 7-(6-methoxy-2,7-dimethylindazol-5-yl)-3-(piperidin-4-yl)pyrido[2,3-d]pyrimidin-4-one] | > 10000 | > 10000 | > 10000 | > 10000 | – | – | – | – | – | – | – | –
4 | COc1c(-c2cc3ccn(C4CCNCC4)c(=O)c3cn2)cc2cn(C)nc2c1C [Compound 1218] | > 10000 | > 10000 | > 10000 | > 10000 | – | – | – | – | – | – | – | –
5 | Cc1cn2nc(-c3cc4ncn(C5CCNCC5)c(=O)c4cc3O)cc(C)c2n1 [Compound 503, 7-{2,8-dimethylimidazo[1,2-b]pyridazin-6-yl}-6-hydroxy-3-(piperidin-4-yl)quinazolin-4-one] | < 100 | 1000 to 10000 | < 100 | 100 to 1000 | – | – | – | – | – | – | – | –
6 | Cc1c(O)c(-c2ncc3c(=O)n(C45CC(N)(C4)C5)ccc3n2)cc2cn(C)nc12 [Compound 1322] | 1000 to 10000 | 1000 to 10000 | > 10000 | 1000 to 10000 | – | – | – | – | – | – | – | –

More lines, main results first:

Row | IC50 [1] [nM] | GI50 [2] [nM] | IC50 [3] [nM] | IC50 [4] [nM] | IC50 ([5]; decrease in HTT canonical junction (CJ) mRNA, RT-qPCR, read-out: HTT CJ IC50) [nM] | IC50 ([5]; Table 5 panel, canonical junction qPCR, compound concentration having 50% response in CJ decrease, read-out: HTT IC50 (decrease in CJ mRNA levels)) [nM] | IC50 ([6]; Table 5 panel, canonical junction qPCR, compound concentration having 50% response in CJ decrease, read-out: MYB IC50 (decrease in CJ mRNA levels)) [nM] | IC50 ([6]; decrease in MYB canonical junction (CJ) mRNA, RT-qPCR, read-out: MYB CJ IC50) [nM] | IC50 [7] [nM] | IC50 [8] [nM] | Compound | AC50 ([5]; increase in HTT alternative junction (AJ) mRNA, RT-qPCR, read-out: HTT AJ AC50) [nM] | AC50 ([6]; increase in MYB alternative junction (AJ) mRNA, RT-qPCR, read-out: MYB AJ AC50) [nM]
7 | < 100 | < 100 | 100 to 1000 | 100 to 1000 | – | – | – | – | – | – | Cc1c(O)c(-c2ncc3c(=O)n(C4CCNC(C)C4)ccc3n2)cc2cn(C)nc12 (stereo not shown) [Compound 1320] | – | –
8 | < 100 | < 100 | < 100 | < 100 | – | – | – | – | – | – | Cn1cc2cc(-c3ccc4c(=O)n(C5CCNCC5)ccc4n3)c(O)cc2n1 [Compound 1239, 2-(6-hydroxy-2-methyl-2H-indazol-5-yl)-6-(piperidin-4-yl)-1,6-naphthyridin-5(6H)-one] | – | –
9 | < 100 | 100 to 1000 | < 100 | < 100 | – | – | – | – | – | – | Cc1cn2nc(-c3cc(F)c4c(=O)n(C5CCN(C)C6(CC6)C5)ncc4c3)cc(C)c2n1 (stereo not shown) [Compound 565] | – | –
10 | < 100 | 100 to 1000 | < 100 | < 100 | – | – | – | – | – | – | Cc1cn2nc(-c3cc(C)c4c(=O)n([C@@H]5CCNC6(CC6)C5)ncc4c3)cc(C)c2n1 [Compound 468] | – | –
11 | 100 to 1000 | 100 to 1000 | < 100 | < 100 | – | – | – | – | – | – | Cc1cn2nc(-c3cc(O)c4c(=O)n([C@@H]5CCNC6(CC6)C5)ncc4c3)cc(C)c2n1 [Compound 470] | – | –
12 | < 100 | 100 to 1000 | < 100 | < 100 | – | – | – | – | – | – | Cc1cn2nc(-c3cc(F)c4c(=O)n(C5CCNCC5)cnc4c3)cc(C#N)c2n1 [Compound 501] | – | –
13 | 100 to 1000 | 100 to 1000 | 100 to 1000 | 1000 to 10000 | – | – | – | – | – | – | Cc1c(O)c(-c2ncc3c(=O)n([C@H]4CC[C@H](N)C4)ccc3n2)cc2cn(C)nc12 [Compound 1334] | – | –
